Reference: publication PMC10572602, “Molecular Mechanism of STIL Coiled-Coil Domain Oligomerization” (International Journal of Molecular Sciences, 2023)
Read-outs that look alike come from different tables or passages of the source.

What was measured:
STIL CCD peptide [1] = assay: AUC sedimentation velocity (SV), oligomeric state; assay type: physicochemical; details: for sw / mw (solution mass from c(s) fit) / f/f0 / sw(20,w) / oligomeric state (average number of monomers in the oligomer): AUC-SV, 60 krpm; for sw / mw (solution mass from c(s) fit) / oligomeric state (average number of monomers in the oligomer): 20 °C; for sw / mw (solution mass from c(s) fit) / f/f0 / sw(20,w): pH 6.8; for mw (solution mass from c(s) fit) / oligomeric state (average number of monomers in the oligomer): 95% confidence level; for oligomeric state (average number of monomers in the oligomer): continuous c(s), 25 mM sodium phosphate pH 6.8, NaCl
Description: Previously, we and others have shown by size-exclusion chromatography and multi-angle light scattering that the oligomerization of a STIL CCD peptide is concentration dependent. However, these studies were qualitative and the interaction was not quantified. To quantify the oligomerisation of the STIL CCD peptide, analytical ultracentrifugation (AUC) sedimentation velocity (SV) and sedimentation equilibrium (SE) experiments were performed (Figure 2A, Table 1 and Figures S4–S9, S18 and S19). AUC-SV experiments were conducted at several concentrations to explore how the oligomeric state changed with concentration in the low-to-high µM concentration range, and also to estimate the dissociation constants of the oligomerization of the STIL CCD peptide.
Analytical ultracentrifugation (AUC) experiments were carried out using a Beckman Optima XL-A or XL-I analytical ultracentrifuge. Measurements were performed at 20 °C unless otherwise stated, using an An-50 or An-60 rotor, in Sodium Phosphate Buffer pH 6.8 (25 mM Na2PO4 with addition of 137 mM NaCl, pH measured using Jenway (TM) 3510 benchtop and adjusted using 1M HCl and 1M NaOH solutions). The partial specific volume ( υ¯ ) for each peptide were calculated in Sedfit using values from Cohn and Edsall. The buffer densities and viscosities were calculated using UltraScan III [54].
Sedimentation velocity (SV) experiments were performed in EPON 2-channel centerpieces with quartz windows or aluminium centrepieces with sapphire windows. The samples were centrifuged at 50 or 60 krpm where stated, with absorbance measurements taken from a radial range of 5.7–7.3 cm. 120 scans were taken at 5 min intervals, the data were fit in Sedfit to a continuous c(s) distribution model at a 95% confidence level. The frictional ration and baseline were floated, and Time-invariant and Radial-invariant noise were fit. Initially data were fit between a range of Svedberg ratio of 0–15, but this was reduced to 0–3 for all data as there were no larger species. The residuals for each individual fit are shown in Figures S14–S17 as a bitmap in which the color indicates the difference between the model fit and the raw data over the radial range to which the data were fitted. The scans are in vertical chronological order.

STIL CCD peptide [2] = biological target: T1, STIL CCD peptide (Homo sapiens, UniProt Q15468, L736E); assay: Fluorescence-based binding (micro-scale thermophoresis instrument), self-association; details: 5 µM labeled + unlabelled same peptide 9 nM–300 µM; 25 mM Na2PO4 pH 6.8, 5% DMSO
T1 construct: STIL CCD718–749 WT; made in house; host or cells: chemical synthesis (Fmoc-SPPS on rink amide, C-terminal amide)
T1 sequence (Q15468 718-749 L736E): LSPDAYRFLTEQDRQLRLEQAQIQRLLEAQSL

[3] = CD spectroscopy, helicity; assay type: physicochemical; details: 5 °C
Source text: (§1) Next, we used circular dichroism (CD) spectroscopy to probe the secondary structures of these WT CCD peptide assemblies. […] The spectra all had minima at 208 and 222 nm indicative of largely α-helical structures. From the high-concentration spectra we estimated ≈47% helix. To compare how the stabilities of these helical assemblies changed with concentration, we followed the changes in MRE222 with temperature over the same concentration range (Figure 2D, Table S1). Sigmoidal curves indicative of cooperative unfolding were apparent at all concentrations, indicating a cooperatively folded, oligomeric species. […] The temperature-dependent CD measurements were performed to determine the oligomerization-dependent thermal stability of the CCD. […] CD spectra of the peptides were recorded using a J-810 spectropolarimeter (Jasco) in a 0.1 cm and 1 cm quartz cuvette for far-UV CD spectroscopy, in a spectral range of 190 nm to 260 nm. The buffer used in the CD measurements was 25 mM sodium phosphate buffer pH = 6.8 with ionic strength of 154 mM (adjected by NaCl). The thermal melting of all STIL CCD peptides were measured as described. The graphs were fitted to Boltzmann equation in order to generate the Tm. Normalization to mean residue ellipticity was performed. The 100% helicity was calculated (with normalization to the length of the peptide and the condition of the measurement) as MRE × 10^−3 of −38 (Deg × cm^2 × dmol^−1 × res^−1).

[4] = assay type: physicochemical; details: for Tm: CD 222 nm, Boltzmann fit
Source text: as §1

[5] = ref [14]; cited from earlier work
Source text: Presumably, this is due to the disruption of the hydrophobic CC interactions upon mutation from the hydrophobic Leu to the charged Glu. […] Other ...

Oligomeric State (at 10 µM) (STIL CCD peptide [1]; 10 µM): Monomer
sw (STIL CCD peptide [1]; 10 µM): 0.590 S
mw (solution mass from c(s) fit) (STIL CCD peptide [1]; 10 µM): 3849 Da
f/f0 (STIL CCD peptide [1]; 10 µM): 1.460
sw(20,w) (STIL CCD peptide [1]; 10 µM): 0.608 S
oligomeric state (average number of monomers in the oligomer) (STIL CCD peptide [1]; 10 µM, absorbance): 1.00 × monomer mass
oligomeric state (average number of monomers in the oligomer) (STIL CCD peptide [1]; 10 µM, absorbance, listed as CCD718–749-L736E): 1 × monomer mass
oligomeric state (average number of monomers in the oligomer) (STIL CCD peptide [1]; 10 µM, absorbance, listed as STIL-L736E): 1.0 × monomer mass
sw (STIL CCD peptide [1]; 500 µM): 0.721 S
mw (solution mass from c(s) fit) (STIL CCD peptide [1]; 500 µM): 3871 Da
f/f0 (STIL CCD peptide [1]; 500 µM): 1.201
sw(20,w) (STIL CCD peptide [1]; 500 µM): 0.742 S
oligomeric state (average number of monomers in the oligomer) (STIL CCD peptide [1]; 500 µM): 1 × monomer mass
oligomeric state (average number of monomers in the oligomer) (STIL CCD peptide [1]; 500 µM, listed as STIL-L736E): 1.0 × monomer mass
binding or oligomerization (in words) (STIL CCD peptide [2]): no binding or oligomerization
concentration dependence of CD spectrum / helical folding (in words) ([3]; different peptide concentrations (WT 5–100 µM), pH 6.8): no concentration dependence
MRE222 nm ([3]; CD at 50 µM, 25 mM sodium phosphate pH 6.8, 154 mM NaCl): −23.3 kdeg cm^2 dmol^−1 res^−1
% Helicity ([3]; from MRE222 (100% = −38), CD at 50 µM, 25 mM sodium phosphate pH 6.8, 154 mM NaCl): 62%
Tm ([4]; 5 µM, sodium phosphate pH 6.8): 18±1 °C
Tm ([4]; 25 µM, sodium phosphate pH 6.8): 17±2 °C
Tm ([4]; 50 µM, 25 mM sodium phosphate pH 6.8, 154 mM NaCl): 10 ± 2 °C
Tm ([4]; 100 µM, sodium phosphate pH 6.8): 12±1 °C
Substance: L SPDAYRF LTEQDRQ LRLEQAQ IQRLLEA QSL-NH2 [STIL CCD718–749 L736E, STIL CCD peptide with destabilising L736E mutation; PDB 8oyk]
concentration dependence of Tm / thermal stability (in words) ([4]; pH 6.8): No detectable change in the Tm at different L736E concentrations
thermal stability of mutant peptide (in words) [5]: leads to a decrease in its thermal stability
